Source: ChEMBL document CHEMBL1146276, “Development of a novel therapeutic suppressor of brain proinflammatory cytokine up-regulation that attenuates synaptic dysfunction and behavioral deficits” (Bioorg Med Chem Lett, 2007)
pIC50: −log10 of the molar value. Converted amounts (≈) assume the structure as drawn. The source made the active and inactive calls. The rule behind the calls is not given here.

Assays:
[1] = Aqueous solubility of the compound; type: physicochemical; conditions: buffer
[2] = Partition coefficient, log P of the compound; type: physicochemical; conditions: octanol/water
[3] = Inhibition of IL1 beta production in glia cells; type: functional, cell-based; conditions: Homo sapiens
[4] = Chemical stability in hydrogen peroxide upto 48 hrs; type: physicochemical; conditions: read-out: Stability
[5] = Chemical stability in dilute base after 5 days; type: physicochemical; conditions: read-out: Stability
[6] = Chemical stability in water; type: physicochemical; conditions: buffer
[7] = Brain penetration, LogBB of the compound; type: ADME; conditions: read-out: logBB (converted)
Cavia porcellus = assay: Cardiotoxicity in guinea pig assessed as prolongation of QTc interval at 15 mg/kg, po; type: toxicity, organism-based; design: dose 15 mg/kg, route oral; conditions: in vivo
Mus musculus [8] = species: Mus musculus; assay: Prevention of loss of synaptic protein synaptophytsin in human amyloid-beta induced mouse injury model; type: functional, organism-based
Mus musculus [9] = assay: Suppression of S100B production in human amyloid-beta induced mouse injury model at […], po for 2 weeks after 60 days of injury; type: functional, organism-based; design: dose 2.5 mg/kg
Mus musculus [10] = assay: Reduction of GFAP-positive astrocytes in human amyloid-beta induced mouse injury model at […], po for 2 weeks after 60 days of injury; type: functional, organism-based; design: dose 2.5 mg/kg
Mus musculus [11] = species: Mus musculus; assay: Attenuation of hippocampal dependent behavioral deficits in mouse by Y maze test; type: functional, organism-based; conditions: Hippocampus
Mus musculus [12] = assay: Suppression of IL1-beta production in human amyloid-beta induced mouse injury model at […], po for 2 weeks after 60 days of injury; type: functional, organism-based; design: dose 2.5 mg/kg
Mus musculus [13] = assay: Suppression of TNFalpha production in human amyloid-beta induced mouse injury model at […], po for 2 weeks after 60 days of injury; type: functional, organism-based; design: dose 2.5 mg/kg
Mus musculus [14] = assay: Reduction of F4/80 positive microglia in human amyloid-beta induced mouse injury model at […], po for 2 weeks after 60 days of injury; type: functional, organism-based; design: dose 2.5 mg/kg
Mus musculus [15] = species: Mus musculus; assay: Prevention of loss of synaptic protein PSD95 in human amyloid-beta induced mouse injury model; type: functional, organism-based
Homo sapiens = species: Homo sapiens; assay: Suppression of proinflammatory cytokine production in glia cells; type: functional, cell-based

c1ccc(-c2cc(-c3ccccc3)c(N3CCN(c4ncccn4)CC3)nn2)cc1 [listing 1 of 2 here]
Solubility [1]: < 2 ng/mL

c1ccc(-c2cc(-c3ccccc3)c(N3CCN(c4ncccn4)CC3)nn2)cc1 [listing 2 of 2 here]
logP [2]: 2.7

Cc1cc(-c2ccccc2)nnc1N1CCN(C2CCCCC2)CC1
pIC50 [3]: 4.50

Cc1cc(-c2ccccc2)nnc1N1CCN(c2ncccn2)CC1.Cl.O
remaining at 48 h [4]: < 10%
logP [2]: 2.3
remaining at 120 h [5]: 53%
Stability [6]: < 5%

Cc1cc(-c2ccccc2)nnc1N1CCN(c2ncccn2)CC1 [MINOZAC FREE BASE]
Kp [7]: 2.82
pIC50 [3]: 5.08
Activity (Cavia porcellus): Non-toxic
Solubility [1]: 16 ng/mL (≈ 0.0481 µM)

Cc1cc(-c2ccccc2)nnc1N1CCN(c2ccccc2)CC1
pIC50 [3]: 4.81

Clc1cc(-c2ccccc2)nnc1N1CCN(c2ncccn2)CC1
pIC50 [3]: 5.02

Cc1cc(-c2ccccc2)nnc1N1CCN(c2ncccn2)CC1
Activity (Mus musculus [8]): Active
Activity (Mus musculus [9]): Active
Activity (Mus musculus [10]): Active
Activity (Mus musculus [11]): Active
Activity (Mus musculus [12]): Active
Activity (Mus musculus [13]): Active
Activity (Mus musculus [14]): Active
Activity (Mus musculus [15]): Active

Cc1cc(-c2ccccc2)nnc1N1CCN(C)CC1
pIC50 [3]: 4.31

Cc1cc(-c2ccccc2)nnc1NCCN1CCOCC1
Activity (Homo sapiens): inactive

Cc1cc(-c2ccccc2)nnc1N1CCN(c2cnccn2)CC1
pIC50 [3]: 4.34
